Reference: PubChem BioAssay (NCI)
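Each compound was tested at five concentrations against cells in 96-well plates for 48 hours. TGI marks complete inhibition of growth.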

Columns and labels:
Experiment in all cases: DTP human tumour cell line panel, 48 h
786-0 renal = tested on: 786-0 renal
MCF7 breast = tested on: MCF7 breast
SF-268 CNS = tested on: SF-268 CNS
UACC-62 melanoma = tested on: UACC-62 melanoma
PC-3 prostate = tested on: PC-3 prostate
EKVX NSCLC = tested on: EKVX NSCLC
CCRF-CEM leukemia = tested on: CCRF-CEM leukemia
DU-145 prostate = tested on: DU-145 prostate
HL-60(TB) leukemia = tested on: HL-60(TB) leukemia
COLO 205 colon = tested on: COLO 205 colon
HT29 colon = tested on: HT29 colon
MDA-MB-231 breast = tested on: MDA-MB-231 breast
RXF 393 renal = tested on: RXF 393 renal
T-47D breast = tested on: T-47D breast
IGROV1 ovarian = tested on: IGROV1 ovarian
NCI/ADR-RES ovarian = tested on: NCI/ADR-RES ovarian
SNB-19 CNS = tested on: SNB-19 CNS
A498 renal = tested on: A498 renal
HS 578T breast = tested on: HS 578T breast

Compound	TGI (786-0 renal) [µM]	TGI (MCF7 breast) [µM]	TGI (SF-268 CNS) [µM]	TGI (UACC-62 melanoma) [µM]	TGI (PC-3 prostate) [µM]	TGI (EKVX NSCLC) [µM]	TGI (CCRF-CEM leukemia) [µM]	TGI (DU-145 prostate) [µM]	TGI (HL-60(TB) leukemia) [µM]	TGI (COLO 205 colon) [µM]	TGI (HT29 colon) [µM]	TGI (MDA-MB-231 breast) [µM]	TGI (RXF 393 renal) [µM]	TGI (T-47D breast) [µM]	TGI (IGROV1 ovarian) [µM]	TGI (NCI/ADR-RES ovarian) [µM]	TGI (SNB-19 CNS) [µM]	TGI (A498 renal) [µM]	TGI (HS 578T breast) [µM]
CCOC(=O)CSc1[nH]c2nc(C)nc(Cl)c2c1C#N	> 10	> 10	> 10	> 10	> 10	> 10	> 10	> 10	> 10	> 10	> 10	> 10	> 10	> 10	> 10				
Oc1c(Cl)ccc2cccnc12	51.4		> 100	8.09	> 100	39.4	2.4	> 100	0.728	> 100	> 100	> 100	26.2	25.8	1.86	3.43	> 100	33.1	> 100
Cn1c(=O)c2c(ncn2CCCCn2ccnc2[N+](=O)[O-])n(C)c1=O	> 100		> 100	> 100		> 100	> 100		> 100	> 100	> 100		> 100		> 100		> 100		
NS(=O)(=O)c1cc(S(N)(=O)=O)c(NC(=O)Nc2ccc(Cl)c(Cl)c2)c(Cl)c1Cl	> 100	> 100	> 100	> 100	> 100	> 100				> 100	> 100	> 100			> 100	> 100	> 100		> 100
N#Cc1cc2c(n(C3OC(CO)C(O)C(O)C3O)c1=S)CCCCC2 (stereo not given)	> 100	> 100	> 100	> 100	> 100		> 100	> 100	> 100	> 100	> 100	> 100	> 100		> 100	> 100	> 100	> 100	> 100
NC(=S)SC1=NNC2(C(=O)N1)c1ccccc1-c1ccccc12	> 10	> 10	> 10	> 10	> 10	> 10	> 10	> 10	> 10	> 10	> 10	> 10	> 10	> 10	> 10	> 10	> 10		> 10
Fc1ccc(C2(CCCN3CCc4[nH]c5cc(F)ccc5c4C3)OCCO2)cc1	27.1	25.3	30.9	26.7		29.1	31.4	28	25.7	24.1	15	35	26.7	30.4	35.4	> 100	23.3	28.9	17.4
COc1cc(S(=O)(=O)N/N=C/C=C/c2ccccc2)c(OC)cc1NC(C)=O	> 100	> 100	> 100	> 100	> 100	> 100	> 100	> 100	> 100	45.8	> 100		> 100	> 100	> 100	> 100	> 100	> 100	> 100
Cn1c(=O)c2[nH]c(/N=N\n3ccc4ccccc43)nc2n(C)c1=O	> 100		> 100	> 100	> 100	> 100	> 100	> 100	> 100	> 100	> 100	> 100	> 100	> 100		> 100	> 100	> 100	> 100
COC(=O)C1=C(O)C(C(=O)OC)[C@]2(O)[C@H](C(=O)OC)[C@H]1C[C@@H](c1ccccc1OC)[C@H]2C(=O)OC (stereo not given in full)	20.4		16.5	18.3	20.7	29.6	21.1	26.2	10.5	13.3	14.6	29.7	20.2	> 76.1	11.3	8.89	19.7	17.4	11
C/C(=N\N=C(\N)OB(F)F)c1ccccn1	> 100	> 100	> 100	> 100		> 100	73.1	> 100	> 100	> 100	> 100	> 100	42.6	> 100	> 100	> 100	> 100	> 100	> 100
NC(N)=NS(=O)(=O)c1ccc(Nc2c3ccccc3nc3ccc(C(=O)Nc4ccc(S(N)(=O)=O)cc4)cc23)cc1	> 100	> 100	> 100	> 100	> 100	> 100	> 100	> 100	> 100	> 100	> 100	> 100	> 100	> 100	> 100	> 100	> 100		> 100
CSc1sc(C)cc1-c1nsc(=O)o1	> 100	> 100	> 100	> 100	> 100	> 100	> 100	> 100	> 100	> 100	> 100		> 100		> 100	> 100	> 100	> 100	> 100
CSc1nc(C)cc(N(C)c2ccccc2)n1	> 100	75.4	> 100	> 100	> 100	> 100	> 100	> 100	61.9	> 100	49.5	87.3	> 100		> 100	63.6	> 100	> 100	86.6
CC(C)N(CCCNc1c2ccccc2nc2cccc([N+](=O)[O-])c12)C(C)C	0.155	13.2			0.527		0.0806	< 0.01		< 0.015	0.0935	< 0.01	0.0377			3.68	0.121	0.0433	
C=CC1(c2ccc(Cl)c(Cl)c2)OCCO1	> 100	> 100	> 100	> 100	> 100	> 100	> 100	> 100	67.5	> 100	> 100	3.48	> 100	> 100	> 100	> 100	> 100		> 100
CCC(C)[C@H]1C(=O)N=C(N)N1C(=O)OCc1ccccc1 (stereo not given in full)	> 100	> 100	> 100	> 100	> 100	> 100		> 100	> 100	> 100	> 100	> 100	> 100		> 100	> 100	> 100	> 100	
O=C(CN1CCOCC1)c1ccc2[nH]c(=O)oc2c1	> 100	> 100	> 100	> 100	> 100	> 100	> 100	> 100	> 100	> 100	> 100	> 100	> 100		> 100	> 100	> 100	> 100	> 100
O=c1oc2ccccc2c(-c2ccc(O)cc2)c1Oc1ccc(Cl)cc1	73	72.3	75.9	63.3	97.1	68.7	52.9	> 100		56.2	64.1	90.6	57.8	> 100	60.8	82.3	67	77.2	> 100
Nc1sccc1S(=O)(=O)c1ccsc1N	> 100	> 100	> 100	> 100	> 100	> 100		> 100		> 100	> 100	> 100		> 100	> 100	> 100	> 100	> 100	> 100
CC(=O)Oc1ccn2nc(C)c(Cc3c(C)nn4ccc(OC(C)=O)cc34)c2c1	> 100	> 10	> 100	> 100	> 10	> 100	76.6	> 100	> 100		> 100	> 100		> 100	> 100	> 100	> 100		> 100
CC1=NN(c2cccc(Cl)c2)C(=N/c2nc3ccccc3s2)/C1=C\C=C\c1ccccc1	> 100	> 100	> 100			> 100	> 100	> 100	92.8		> 100		> 100	> 100	82.8	> 100		75.5	87.6
CNC(=S)NNC1=NCCCN1	> 100	> 100	> 100	> 100	> 100	> 100	> 100		> 100	> 100	> 100	> 100	> 100	> 100	> 100	> 100	> 100	> 100	> 100
COc1ccc(Cc2nc3cc(Cl)ccc3o2)cc1	> 100	> 100	> 100	> 100	> 100	78.6	> 100	> 100	> 100	> 100	> 100	> 100	70.2	91.1	> 100	76.9	> 100		> 100
CCN(CC)C(=O)C1=C(C)NC(C)=C(C(=O)N(CC)CC)C1	> 100	> 100	> 100	> 100	> 100	> 100	> 100	> 100	> 100	> 100		> 100	> 100	> 100	> 100		> 100	> 100	> 100
Nn1c(-c2ccccc2Nc2ccccc2-c2n[nH]c(=S)n2N)n[nH]c1=S	> 50	> 50	> 50	> 50	> 50	> 50	> 50	> 50	> 50	> 50	> 50		> 50		> 50	> 50	> 50		
CCN(CC)CCC(=O)c1ccc(Oc2ccc(C)cc2)cc1	30.1	32.9	33.8	31.3	38.2	38.2	89.7	95.3		45.1	35.6	31	30.2	40.2	35.7	51.2	33.3		44.6
COc1cccc(N=N/C(=N/NC(=O)c2cc(Cl)ccc2O)c2ccc(N(CCC#N)CCC#N)cc2C)c1	> 100	79.1	> 100	> 100	> 100	> 100	> 100	> 100		41.2	> 100	> 100	> 100	58.4	> 100	> 100	> 100	> 100	> 100
